Results from patent US10150755B2, “ASK1 inhibitor compounds and uses thereof” (Seal Rock Therapeutics, Inc., priority 2017, dated 2018).
pIC50: −log10 of the molar value.

Molecular target: ASK1 (Homo sapiens (Human), UniProt Q99683)
Experiment: ASK1 Kinase Assay (Promega ASK1 Kinase Enzyme System, ADP-Glo)
Format: biochemical
Details: enzyme 50 nM, ATP 10 μM
Experimental: The ASK1 enzymatic assay was run following Promega ASK1 Kinase Enzyme System (Cat #V3881). The kit provides the protocol, enzymes and all reagents necessary to run an assay. Firstly, the compounds, enzyme, substrate and ATP were diluted in provided assay buffer. The final concentration of the enzyme was 50 nM, substrate (Myelin basic protein) 1 μg/ml and ATP 10 μM. The compound and the enzyme were pre-incubated in a 384 well white solid bottom plate (Greiner, Cat#784075) for 10 minutes. After incubation, the substrate and ATP were added and incubated for further 60 minutes. After 60 minutes, ADP-Glo™ was added and plate was incubated for another 40 minutes. After 40 minutes, Kinase Detection Reagent was added and the plate was incubated for 45 minutes. After 45 minutes, plate was read on Perkin Elmer EnVision using luminescence read (0.5 seconds/well).

Chain of ASK1 (Q99683 649-946 limits assumed): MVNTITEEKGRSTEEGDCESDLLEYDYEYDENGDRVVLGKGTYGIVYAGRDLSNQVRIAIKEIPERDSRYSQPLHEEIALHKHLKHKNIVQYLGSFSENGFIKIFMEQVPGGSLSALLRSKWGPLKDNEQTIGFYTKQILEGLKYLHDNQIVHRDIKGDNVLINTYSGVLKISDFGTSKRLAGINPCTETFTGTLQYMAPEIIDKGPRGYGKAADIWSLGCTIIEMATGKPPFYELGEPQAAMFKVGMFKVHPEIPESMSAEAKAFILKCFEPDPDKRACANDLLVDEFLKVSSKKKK

SMILES | pIC50
CNC(=O)c1ccc2c(c1)CN(c1cccc(-c3nncn3C3CC3)n1)C2=O [Compound 3, 2-(6-(4-cyclopropyl-4H-1,2,4-triazol-3-yl)pyridin-2-yl)-N-methyl-1-oxoisoindoline-5-carboxamide] | > 6.70
COCCNC(=O)c1ccc2c(c1)CN(c1cccc(-c3nncn3C3CC3)n1)C2=O [Compound 4, 2-(6-(4-cyclopropyl-4H-1,2,4-triazol-3-yl)pyridin-2-yl)-N-(2-methoxyethyl)-1-oxoisoindoline-5-carboxamide] | > 6.70
O=C(NC1CCOCC1)c1ccc2c(c1)CN(c1cccc(-c3nncn3C3CC3)n1)C2=O [Compound 9, 2-(6-(4-cyclopropyl-4H-1,2,4-triazol-3-yl)pyridin-2-yl)-1-oxo-N-(tetrahydro-2H-pyran-4-yl)isoindoline-5-carboxamide] | > 6.70
O=C(c1ccc2c(c1)CN(c1cccc(-c3nncn3C3CC3)n1)C2=O)N1CCCC1 [Compound 18, 2-(6-(4-cyclopropyl-4H-1,2,4-triazol-3-yl)pyridin-2-yl)-5-(pyrrolidine-1-carbonyl)isoindolin-1-one] | > 6.70
O=C(c1ccc2c(c1)CN(c1cccc(-c3nncn3C3CC3)n1)C2=O)N1CCC1 [Compound 19, 5-(azetidine-1-carbonyl)-2-(6-(4-cyclopropyl-4H-1,2,4-triazol-3-yl)pyridin-2-yl)isoindolin-1-one] | > 6.70
O=C1CN(C(=O)c2ccc3c(c2)CN(c2cccc(-c4nncn4C4CC4)n2)C3=O)CCN1 [Compound 20, 2-(6-(4-cyclopropyl-4H-1,2,4-triazol-3-yl)pyridin-2-yl)-5-(3-oxopiperazine-1-carbonyl)isoindolin-1-one] | > 6.70
O=C(c1ccc2c(c1)CN(c1cccc(-c3nncn3C3CC3)n1)C2=O)N1C[C@H]2CC[C@@H](C1)O2 [Compound 21, 5-((1R,5S)-8-oxa-3-azabicyclo[3.2.1]octane-3-carbonyl)-2-(6-(4-cyclopropyl-4H-1,2,4-triazol-3-yl)pyridin-2-yl)isoindolin-1-one] | > 6.70
CO[C@@H]1CCN(C(=O)c2ccc3c(c2)CN(c2cccc(-c4nncn4C4CC4)n2)C3=O)C1 [Compound 22, (R)-2-(6-(4-cyclopropyl-4H-1,2,4-triazol-3-yl)pyridin-2-yl)-5-(3-methoxypyrrolidine-1-carbonyl)isoindolin-1-one] | > 6.70
COC(=O)C1CCN(C(=O)c2ccc3c(c2)CN(c2cccc(-c4nncn4C4CC4)n2)C3=O)CC1 [Compound 23, methyl 1-(2-(6-(4-cyclopropyl-4H-1,2,4-triazol-3-yl)pyridin-2-yl)-1-oxoisoindoline-5-carbonyl)piperidine-4-carboxylate] | > 6.70
O=C(c1ccc2c(c1)CN(c1cccc(-c3nncn3C3CC3)n1)C2=O)N1CCSCC1 [Compound 24, 2-(6-(4-cyclopropyl-4H-1,2,4-triazole-3-yl)pyridin-2-yl)-5-(thiomorpholine-4-carbonyl)isoindolin-1-one] | > 6.70
CSC1CCN(C(=O)c2ccc3c(c2)CN(c2cccc(-c4nncn4C4CC4)n2)C3=O)CC1 [Compound 25, 2-(6-(4-cyclopropyl-4H-1,2,4-triazol-3-yl)pyridin-2-yl)-5-(4-(methylthio)piperidine-1-carbonyl)isoindolin-1-one] | > 6.70
O=C(c1cc2c(cc1Cl)C(=O)N(c1cccc(-c3nncn3C3CC3)n1)C2)N1CCOCC1 [Compound 26, 6-chloro-2-(6-(4-cyclopropyl-4H-1,2,4-triazol-3-yl)pyridin-2-yl)-5-(morpholine-4-carbonyl)isoindolin-1-one] | > 6.70
O=C1c2ccc(-c3cc[nH]n3)cc2CN1c1cccc(-c2nncn2C2CC2)n1 [Compound 28, 2-(6-(4-cyclopropyl-4H-1,2,4-triazol-3-yl)pyridin-2-yl)-5-(1H-pyrazol-3-yl)isoindolin-1-one] | > 6.70
O=C1c2ccc(NC(=O)C3(c4ccccc4)CC3)cc2CN1c1cccc(-c2nncn2C2CC2)n1 [Compound 33, N-(2-(6-(4-Cyclopropyl-4H-1,2,4-triazol-3-yl)pyridin-2-yl)-1-oxoisoindolin-5-yl)-1-phenylcyclopropane-1-carboxamide] | 6.00 to 6.70
CCNc1ccc2c(c1)CN(c1cccc(-c3nncn3C3CC3)n1)C2=O [Compound 35, 2-(6-(4-cyclopropyl-4H-1,2,4-triazol-3-yl)pyridin-2-yl)-5-(ethylamino)isoindolin-1-one] | > 6.70

Next, values leading:

pIC50 | SMILES
> 6.70 | O=C(NCCn1ccnc1)c1ccc2c(c1)CN(c1cccc(-c3nncn3C3CC3)n1)C2=O [Compound 5, N-(2-(1H-imidazol-1-yl)ethyl)-2-(6-(4-cyclopropyl-4H-1,2,4-triazol-3-yl)pyridin-2-yl)-1-oxoisoindoline-5-carboxamide]
> 6.70 | O=C1c2ccc(C(=O)n3cccn3)cc2CN1c1cccc(-c2nncn2C2CC2)n1 [Compound 6, 2-(6-(4-cyclopropyl-4H-1,2,4-triazol-3-yl)pyridin-2-yl)-5-(1H-pyrazole-1-carbonyl)isoindolin-1-one]
> 6.70 | Cn1nccc1-c1ccc2c(c1)CN(c1cccc(-c3nncn3C3CC3)n1)C2=O [Compound 29, 2-(6-(4-cyclopropyl-4H-1,2,4-triazol-3-yl)pyridin-2-yl)-5-(1-methyl-1H-pyrazol-5-yl)isoindolin-1-one]
> 6.70 | Cn1cnc(-c2ccc3c(c2)CN(c2cccc(-c4nncn4C4CC4)n2)C3=O)c1 [Compound 30, 2-(6-(4-cyclopropyl-4H-1,2,4-triazol-3-yl)pyridin-2-yl)-5-(1-methyl-1H-imidazol-4-yl)isoindolin-1-one]
> 6.70 | Nc1ccc2c(c1)CN(c1cccc(-c3nncn3C3CC3)n1)C2=O [Compound 31, 5-amino-2-(6-(4-cyclopropyl-4H-1,2,4-triazol-3-yl)pyridin-2-yl)isoindolin-1-one]
> 6.70 | Cn1cncc1-c1ccc2c(c1)C(=O)N(c1cccc(-c3nncn3C3CC3)n1)C2 [Compound 36, 2-(6-(4-cyclopropyl-4H-1,2,4-triazol-3-yl)pyridin-2-yl)-6-(1-methyl-1H-imidazol-5-yl)isoindolin-1-one]
> 6.70 | O=C1c2cc(-n3ccnc3)ccc2CN1c1cccc(-c2nncn2C2CC2)n1 [Compound 37, 2-(6-(4-cyclopropyl-4H-1,2,4-triazol-3-yl)pyridin-2-yl)-6-(1H-imidazol-1-yl)isoindolin-1-one]
> 6.70 | O=C1c2cc(-n3cnc4ccccc43)ccc2CN1c1cccc(-c2nncn2C2CC2)n1 [Compound 38, 6-(1H-Benzo[d]imidazol-1-yl)-2-(6-(4-cyclopropyl-4H-1,2,4-triazol-3-yl)pyridin-2-yl)isoindolin-1-one]
> 6.70 | Cn1ccc(-c2ccc3c(c2)C(=O)N(c2cccc(-c4nncn4C4CC4)n2)C3)n1 [Compound 39, 2-(6-(4-cyclopropyl-4H-1,2,4-triazol-3-yl)pyridin-2-yl)-6-(1-methyl-1H-pyrazol-3-yl)isoindolin-1-one]
> 6.70 | Cc1ccc(-c2ccc3c(c2)C(=O)N(c2cccc(-c4nncn4C4CC4)n2)C3)cn1 [Compound 42, 2-(6-(4-cyclopropyl-4H-1,2,4-triazol-3-yl)pyridin-2-yl)-6-(6-methylpyridin-3-yl)isoindolin-1-one]
> 6.70 | COc1ccc(-c2ccc3c(c2)C(=O)N(c2cccc(-c4nncn4C4CC4)n2)C3)cn1 [Compound 45, 2-(6-(4-cyclopropyl-4H-1,2,4-triazol-3-yl)pyridin-2-yl)-6-(6-methoxypyridin-3-yl)isoindolin-1-one]
> 6.70 | O=C1c2cc(-c3cnn(C4CC4)c3)ccc2CN1c1cccc(-c2nncn2C2CC2)n1 [Compound 47, 6-(1-cyclopropyl-1H-pyrazol-4-yl)-2-(6-(4-cyclopropyl-4H-1,2,4-triazol-3-yl)pyridin-2-yl)isoindolin-1-one]
> 6.70 | O=C1c2cc(-c3cnccc3F)ccc2CN1c1cccc(-c2nncn2C2CC2)n1 [Compound 48, 2-(6-(4-cyclopropyl-4H-1,2,4-triazol-3-yl)pyridin-2-yl)-6-(4-fluoropyridin-3-yl)isoindolin-1-one]
> 6.70 | O=C1c2cc(-c3cnccc3Cl)ccc2CN1c1cccc(-c2nncn2C2CC2)n1 [Compound 49, 6-(4-chloropyridin-3-yl)-2-(6-(4-cyclopropyl-4H-1,2,4-triazol-3-yl)pyridin-2-yl)isoindolin-1-one]
> 6.70 | O=C1c2cc(-c3ccncc3)ccc2CN1c1cccc(-c2nncn2C2CC2)n1 [Compound 50, 2-(6-(4-cyclopropyl-4H-1,2,4-triazol-3-yl)pyridin-2-yl)-6-(pyridin-4-yl)isoindolin-1-one]
> 6.70 | Cc1ncc(-c2ccc3c(c2)C(=O)N(c2cccc(-c4nncn4C4CC4)n2)C3)s1 [Compound 51, 2-(6-(4-cyclopropyl-4H-1,2,4-triazol-3-yl)pyridin-2-yl)-6-(2-methylthiazol-5-yl)isoindolin-1-one]
> 6.70 | Cc1ncccc1-c1ccc2c(c1)C(=O)N(c1cccc(-c3nncn3C3CC3)n1)C2 [Compound 52, 2-(6-(4-cyclopropyl-4H-1,2,4-triazol-3-yl)pyridin-2-yl)-6-(2-methylpyridin-3-yl)isoindolin-1-one]
> 6.70 | O=C1c2cc(-c3cccnc3F)ccc2CN1c1cccc(-c2nncn2C2CC2)n1 [Compound 53, 2-(6-(4-cyclopropyl-4H-1,2,4-triazol-3-yl)pyridin-2-yl)-6-(2-fluoropyridin-3-yl)isoindolin-1-one]
> 6.70 | Cc1cncc(-c2ccc3c(c2)C(=O)N(c2cccc(-c4nncn4C4CC4)n2)C3)c1 [Compound 54, 2-(6-(4-cyclopropyl-4H-1,2,4-triazol-3-yl)pyridin-2-yl)-6-(5-methylpyridin-3-yl)isoindolin-1-one]
